# Results: PubChem BioAssay AID2060903 (Molecular Pharmacology Branch, DTP, NCI, 2025)
# System: 377384-186-R-J1-PDC complex spheroid viability
# Assay: Anticancer human tumor 377384-186-R-J1-PDC patient-derived pancreatic carcinoma cell line growth inhibition [RAS]
# Settings: for IC50: curve of first compound; for viability, T/C: stronger effect = lower value
# Summary of the method: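 Tumour cells grown as complex spheroids with HUVEC endothelial cells and mesenchymal stem cells, treated with RAS pathway inhibitor combinations. Each agent spans half-log steps from near clinical Cmax, or 10 microM where Cmax is unknown.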
# 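Also: spheroids exposed to compounds for seven days before readout.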
smiles,measurement,setting,value
CC(=O)OC12COC1CC(O)C1(C)C(=O)C(O)C3=C(C)C(OC(=O)C(O)C(NC(=O)OC(C)(C)C)c4ccccc4)CC(O)(C(OC(=O)c4ccccc4)C21)C3(C)C (centres undefined) + CCn1c(-c2cc(N3CCN(C)CC3)cnc2C(C)OC)c2c3cc(ccc31)-c1csc(n1)CC(NC(=O)C1CC1C)C(=O)N1CCCC(N1)C(=O)OCC(C)(C)C2,IC50,second compound 0.000949 µM,< 31.6 nM
same,IC50,second compound 0.003 µM,< 31.6 nM
same,IC50,second compound 0.00949 µM,< 31.6 nM
same,IC50,second compound 0.03 µM,< 31.6 nM
same,IC50,second compound 0.0949 µM,< 31.6 nM
same,IC50,second compound 0.3 µM,< 31.6 nM
same,"viability, T/C","second compound 0.000949 µM, first compound 0.0316 µM",3.43%
same,"viability, T/C","second compound 0.000949 µM, first compound 0.1 µM",4.27%
same,"viability, T/C","second compound 0.000949 µM, first compound 0.316 µM",3.99%
same,"viability, T/C","second compound 0.000949 µM, first compound 1 µM",4.95%
same,"viability, T/C","second compound 0.000949 µM, first compound 3.16 µM",5.23%
same,"viability, T/C","second compound 0.000949 µM, first compound 10 µM",5.38%
same,"viability, T/C","second compound 0.003 µM, first compound 0.0316 µM",2.96%
same,"viability, T/C","second compound 0.003 µM, first compound 0.1 µM",1.47%
same,"viability, T/C","second compound 0.003 µM, first compound 0.316 µM",2.97%
same,"viability, T/C","second compound 0.003 µM, first compound 1 µM",2.21%
same,"viability, T/C","second compound 0.003 µM, first compound 3.16 µM",2.97%
same,"viability, T/C","second compound 0.003 µM, first compound 10 µM",2.38%
same,"viability, T/C","second compound 0.00949 µM, first compound 0.0316 µM",1.88%
same,"viability, T/C","second compound 0.00949 µM, first compound 0.1 µM",2.6%
same,"viability, T/C","second compound 0.00949 µM, first compound 0.316 µM",2%
same,"viability, T/C","second compound 0.00949 µM, first compound 1 µM",2.25%
same,"viability, T/C","second compound 0.00949 µM, first compound 3.16 µM",2.05%
same,"viability, T/C","second compound 0.00949 µM, first compound 10 µM",2.33%
same,"viability, T/C","second compound 0.03 µM, first compound 0.0316 µM",1.57%
same,"viability, T/C","second compound 0.03 µM, first compound 0.1 µM",1.84%
same,"viability, T/C","second compound 0.03 µM, first compound 0.316 µM",1.46%
same,"viability, T/C","second compound 0.03 µM, first compound 1 µM",1.65%
same,"viability, T/C","second compound 0.03 µM, first compound 3.16 µM",2.16%
same,"viability, T/C","second compound 0.03 µM, first compound 10 µM",1.64%
same,"viability, T/C","second compound 0.0949 µM, first compound 0.0316 µM",1.97%
same,"viability, T/C","second compound 0.0949 µM, first compound 0.1 µM",1.63%
same,"viability, T/C","second compound 0.0949 µM, first compound 0.316 µM",1.57%
same,"viability, T/C","second compound 0.0949 µM, first compound 1 µM",1.56%
same,"viability, T/C","second compound 0.0949 µM, first compound 3.16 µM",1.78%
same,"viability, T/C","second compound 0.0949 µM, first compound 10 µM",1.2%
same,"viability, T/C","second compound 0.3 µM, first compound 0.0316 µM",1.96%
same,"viability, T/C","second compound 0.3 µM, first compound 0.1 µM",1.22%
same,"viability, T/C","second compound 0.3 µM, first compound 0.316 µM",2.82%
same,"viability, T/C","second compound 0.3 µM, first compound 1 µM",1.84%
same,"viability, T/C","second compound 0.3 µM, first compound 3.16 µM",1.23%
same,"viability, T/C","second compound 0.3 µM, first compound 10 µM",1.25%
CCc1c2c(nc3ccc(O)cc13)-c1cc3c(c(=O)n1C2)COC(=O)[C@]3(O)CC + CCn1c(-c2cc(N3CCN(C)CC3)cnc2C(C)OC)c2c3cc(ccc31)-c1csc(n1)CC(NC(=O)C1CC1C)C(=O)N1CCCC(N1)C(=O)OCC(C)(C)C2,IC50,second compound 0.000949 µM,< 0.949 nM
same,IC50,second compound 0.003 µM,< 0.949 nM
same,IC50,second compound 0.00949 µM,< 0.949 nM
same,IC50,second compound 0.03 µM,< 0.949 nM
same,IC50,second compound 0.0949 µM,< 0.949 nM
same,IC50,second compound 0.3 µM,< 0.949 nM
same,"viability, T/C","second compound 0.000949 µM, first compound 0.000949 µM",33.1%
same,"viability, T/C","second compound 0.000949 µM, first compound 0.003 µM",21.3%
same,"viability, T/C","second compound 0.000949 µM, first compound 0.00949 µM",10.2%
same,"viability, T/C","second compound 0.000949 µM, first compound 0.03 µM",5.07%
same,"viability, T/C","second compound 0.000949 µM, first compound 0.0949 µM",2.53%
same,"viability, T/C","second compound 0.000949 µM, first compound 0.3 µM",1.79%
same,"viability, T/C","second compound 0.003 µM, first compound 0.000949 µM",20.8%
same,"viability, T/C","second compound 0.003 µM, first compound 0.003 µM",7.71%
same,"viability, T/C","second compound 0.003 µM, first compound 0.00949 µM",4.82%
same,"viability, T/C","second compound 0.003 µM, first compound 0.03 µM",3.05%
same,"viability, T/C","second compound 0.003 µM, first compound 0.0949 µM",2.03%
same,"viability, T/C","second compound 0.003 µM, first compound 0.3 µM",1.92%
same,"viability, T/C","second compound 0.00949 µM, first compound 0.000949 µM",4.34%
same,"viability, T/C","second compound 0.00949 µM, first compound 0.003 µM",3.24%
same,"viability, T/C","second compound 0.00949 µM, first compound 0.00949 µM",2.6%
same,"viability, T/C","second compound 0.00949 µM, first compound 0.03 µM",2.11%
same,"viability, T/C","second compound 0.00949 µM, first compound 0.0949 µM",2.15%
same,"viability, T/C","second compound 0.00949 µM, first compound 0.3 µM",1.25%
same,"viability, T/C","second compound 0.03 µM, first compound 0.000949 µM",2.43%
same,"viability, T/C","second compound 0.03 µM, first compound 0.003 µM",2.09%
same,"viability, T/C","second compound 0.03 µM, first compound 0.00949 µM",2.04%
same,"viability, T/C","second compound 0.03 µM, first compound 0.03 µM",2.06%
same,"viability, T/C","second compound 0.03 µM, first compound 0.0949 µM",1.98%
same,"viability, T/C","second compound 0.03 µM, first compound 0.3 µM",1.26%
same,"viability, T/C","second compound 0.0949 µM, first compound 0.000949 µM",1.98%
same,"viability, T/C","second compound 0.0949 µM, first compound 0.003 µM",1.94%
same,"viability, T/C","second compound 0.0949 µM, first compound 0.00949 µM",1.8%
same,"viability, T/C","second compound 0.0949 µM, first compound 0.03 µM",1.65%
same,"viability, T/C","second compound 0.0949 µM, first compound 0.0949 µM",1.4%
same,"viability, T/C","second compound 0.0949 µM, first compound 0.3 µM",0.95%
same,"viability, T/C","second compound 0.3 µM, first compound 0.000949 µM",1.39%
same,"viability, T/C","second compound 0.3 µM, first compound 0.003 µM",1.76%
same,"viability, T/C","second compound 0.3 µM, first compound 0.00949 µM",1.84%
same,"viability, T/C","second compound 0.3 µM, first compound 0.03 µM",1.68%
same,"viability, T/C","second compound 0.3 µM, first compound 0.0949 µM",1.29%
same,"viability, T/C","second compound 0.3 µM, first compound 0.3 µM",0.71%
